Assay results published in patent US8796302B2 (priority 2004, dated 2014).

What was measured:
[1] = test system: dopaminergic neurons in rat primary mesencephalic neuron-glia cultures; assay: [3H]DA uptake in LPS-treated mesencephalic neuron-glia cultures; assay type: cell-based; details: LPS 10 ng/ml, 7 days; for LPS-induced decrease in [3H]-dopamine uptake: 30 min pretreatment
Protocol: Neuron-glia cultures were prepared from the ventral mesencephalic tissues of embryonic day 13-14 Fisher F344 rats or day 12-13 wild-type C57BL/6J (gp91phox^+/+) mice. Dissociated cells were seeded at 1×10^5/well and 5×10^5/well to poly-D-lysine-coated 96-well and 24-well plates, respectively. Cells were maintained at about 37° C. in a humidified atmosphere of 5% CO2 and 95% air, in minimal essential medium (MEM) containing 10% fetal bovine serum (FBS), 10% horse serum (HS), 1 gm/l glucose, 2 mM L-glutamine, 1 mM sodium pyruvate, 100 μM nonessential amino acids, 50 U/ml penicillin, and 50 μg/ml streptomycin. Seven-day-old cultures were used for treatment.
Dextromethorphan (obtained from Sigma-Aldrich (St. Louis, Mo.) as dextromethorphan hydrobromide) was freshly prepared as a stock solution (1 mM) in ddH2O and sterile-filtered right before use. For treatment of the cultures, the DM was serially diluted (10×) with fresh culture medium containing 2% of fetal bovine and horse serum. The neuron-glia cultures were pretreated with 10^−5-10^−17M DM 30 minutes prior to treatment with 10 ng/ml of LPS.
Seven days after treatment, the degeneration of dopaminergic neurons was assessed by [^3H]-dopamine (DA) uptake assays. The [^3H]-DA uptake assays were performed as follows. Cultures were washed twice with warm Krebs-Ringer buffer (KRB, 16 mM sodium phosphate, 119 mM NaCl, 4.7 mM KCl, 1.8 mM CaCl2, 1.2 mM MgSO4, 1.3 mM EDTA, and 5.6 mM glucose; pH7.4) and then incubated for about 20 minutes at about 37° C. with 1 μM [^3H]-DA in KRB in order to allow for the uptake of DA. Afterwards, the cultures were washed (three times) with ice-cold KRB and the cells were collected in 1 N NaOH. Radioactivity was determined by liquid scintillation counting.
This example tests whether or not post-treatment with DM is still neuroprotective in LPS-induced neurotoxicity. Neuron-glia co-cultures as prepared in Example 1 were first treated with LPS (20 ng/ml) for twelve hours, and then LPS was removed by removing the media from the cultures and washing twice with PBS. Different concentrations of DM (10^−5, 10^−10, and 10^−14 M) were then added to the cultures and incubation was continued for another 6 or 7 days. The DA uptake and the superoxide production were measured as in Example 1 and 5.
Neuron-glia cell cultures were prepared as in Example 1, and pretreated with the various peptide fragments of Table 1 (peptide fragments were obtained from BACHEM) for 30 minutes followed by addition of 5 ng/ml of LPS. DA neurotoxicity was measured as an Example 1 at 7 days post treatment.
DA neurotoxicity was measured at 7 days post treatment as in Example 1. Dopaminergic neuronal death was determined at 7 days post treatment using immunocytochemical staining as in Example 2.
Neuron-glia cultures were prepared from the ventral mesencephalic tissues of embryonic day 13-14 rats. Dissociated cells were seeded at 1×10^5/well and 5×10^5/well to poly-D-lysine-coated 96-well and 24-well plates, respectively.

[2] = test system: dopaminergic neurons in neuron-glia co-cultures; assay: [3H]DA uptake in Aβ-treated neuron-glia cultures; assay type: cell-based, rat; details: micro- and femtomolar DM, 30 min pretreatment, Aβ 0.75 μM
Protocol: Neuron-glia co-cultures were prepared and treated with vehicle alone, Aβ 0.75 μM alone, or DM 30 min prior to treatment with Aβ0.75 μM similar to Example 1. Amyloid-β peptide (25-35 and 1-42) was obtained from American Peptide Co., Inc (Sunnyvale, Calif.). Neurotoxicity was assessed by DA uptake as in Example 1. Results are expressed as a percentage of the control cultures and are the mean±S.E.M. of three to eight individual experiments with triplicates in each experiment. ##, P<0.01 compared with the control culture; *, P<0.05 compared with Aβ-treated culture.

iROS = iROS production in neuron-glia cultures of PHOX+/+ and PHOX−/− mice; assay type: cell-based, mouse; details: DM 10^−14 M
Protocol: The neuron-glia cultures were treated with vehicle, LPS 10 ng/ml alone, and DM (10^−14 M) 30 min pretreatment followed by LPS treatment as in Example 1. Neurotoxicity was assessed by DA uptake as described in Example 1. TNFα production was measured by ELISA and iROS was determined by DCFDA as in Example 5. Results are expressed as a percentage of the control culture in FIG. 7A, pg/ml in FIG. 7B, and difference from control in FIG. 7C, respectively, and are the mean±S.E.M. of five individual experiments with triplicates in each experiment. *, P<0.05 compared with LPS culture.

CD-1 mice given LPS/GalN = assay: Liver histology in LPS/GalN endotoxic shock; assay type: in vivo, mouse
Protocol: Serum alanine aminotransferase (ALT) activity was assayed as a marker of hepatocellular death using a commercially available kit (Infinite ALT, Sigma, St. Louis, Mo.). A portion of the liver was fixed in 10% neutral formalin, processed by standard histological techniques, stained with hematoxylin and eosin, and examined for morphological evidence of liver injury.
Sections of the mice livers were stained with hematoxylin and eosin, and photomicrographs were taken at 100× magnification.

primary rat microglia = assay: Microglia number (CyQUANT) in microglia-enriched cultures; assay type: cell-based
Protocol: Primary rat microglia-enriched cultures were used to determine if VPA treatment affected the total number of microglia. Microglia cell number was determined as follows. Primary microglia-enriched cultures were prepared from the whole brains of 1-day-old rats as described previously. After one day in vitro were treated with the indicated concentrations of VPA (0.05, 0.1, 0.2, 0.4, 0.6, 0.8, 1.0, or 1.2 mM) for 48 h, or with 0.6 mM VPA for different times (6, 12, 24 or 48 h). […] The total number of microglia was counted by using the CyQUANT cell proliferation assay kit (Molecular Probes, Inc.).

COc1ccc2c(c1)[C@@]13CCCC[C@H]1[C@@H](C2)N(C)CC3 [DM, d-3-methoxy-N-methylmorphinan]
LPS-induced decrease in [3H]-dopamine uptake ([1]; DM 10^−5 and 10^−6 M): attenuated the LPS-induced decrease
LPS-induced decrease in [3H]-dopamine uptake ([1]; DM 10^−8 to 10^−12 M): no protective effects
Aβ-induced neurotoxicity (DA uptake) [2]: neuroprotective effect
LPS-induced iROS production (iROS; PHOX+/+ mice): significantly inhibited iROS production
LPS-induced iROS production (iROS; PHOX−/− mice): failed to show any effect
liver histology (hematoxylin and eosin) (CD-1 mice given LPS/GalN; 100 pg/kg DM plus LPS/GalN): cell death is mild
liver histology (hematoxylin and eosin) (CD-1 mice given LPS/GalN; 1 μg/kg DM plus LPS/GalN): hepatic congestion and cell death are obvious
liver histology (hematoxylin and eosin) (CD-1 mice given LPS/GalN; 10 mg/kg DM plus LPS/GalN): hepatic congestion and cell death are mild
liver pathological alterations (necrosis, apoptosis, swelling) (CD-1 mice given LPS/GalN; DM treatments, 12 hours after LPS/GalN): dramatically ameliorated

Oc1ccc2c(c1)[C@@]13CCCC[C@H]1[C@@H](C2)NCC3 [3-HM, 3-hydroxymorphinan]
LPS-induced reduction in DA uptake ([1]; 3-HM 1-5 μM pretreatment): significantly attenuated the LPS-induced reduction in DA uptake

CCCC(CCC)C(=O)O [VPA, Valproic acid]
number of microglia, concentration dependence (primary rat microglia; VPA 0.2 mM to 1.2 mM, 48 h): robust decrease in microglia number
number of microglia, time course (primary rat microglia; VPA 0.6 mM, 6-48 h, significant effect at 24 h and 48 h): time-dependently decreased the number of microglia
loss of microglia (primary rat microglia; VPA 0.8 mM, 48 h): about 80%
